# Assay results published in patent publication US5013850A, “4-ethyl and 4-ethenyl-5-hydroxy-2(5H)-furanones substituted on alpha carbon of the ethyl or ethenyl side chain with a long chain alkyl group and on the beta carbon with a polar group, as anti-inflammatory agents” (Allergan, Inc., priority 1990, dated 1991).
# Experiments:
# [1] = biological target: bee venom phospholipase A2 (Apis mellifera, UniProt P00630); assay: biochemical; details: read-out: IC50, Phospholipase A2 Assay (50% inhibition of bee venom phospholipase A2)
# [2] = U.S. Pat. No. 4,447,445; European Patent Application No. 0133376; cited from earlier work
# [3] = tested on: phosphoinositide-specific phospholipase C; details: Bennett et al, Molecular Pharmacology 32:587-593 (1987); cited from earlier work
# Chain of bee venom phospholipase A2 (P00630 34-167 limits assumed): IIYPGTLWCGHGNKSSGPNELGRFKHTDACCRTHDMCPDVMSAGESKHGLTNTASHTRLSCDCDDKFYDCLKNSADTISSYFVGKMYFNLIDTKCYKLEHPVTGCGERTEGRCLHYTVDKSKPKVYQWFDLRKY
smiles,measurement,setting,value
"CCCCCCCCCCCCC(CC(=O)O)C1=CC(=O)OC1O (centres unmarked) [Compound 12, 4-[1-(Carboxymethyl)tridecyl]-5-hydroxy-2(5H)-furanone]",IC50,[1],130 nM
CC(=CCCC(C=O)=CCC(O)C1=CC(=O)OC1O)CCC1=C(C)CCCC1(C)C (centres unmarked) [Compound 2],biological activity,[2],anti-inflammatory inflammatory activity
CC(=CCCC1=CCC(C2=CC(=O)OC2O)OC1O)CCC1=C(C)CCCC1(C)C (centres unmarked) [Compound 1],inhibition of phosphoinositide-specific phospholipase C,[3],This activity has been reported for manoalide
same,biological activity,[2],"anti-inflammatory, immunosuppressive and analgesic properties"
same,IC50,[1],30 nM
"CCCCCCCCCCCCC(=CP(=O)(OCC)OCC)C1=CC(=O)OC1O (centres unmarked) [Compound 24, 4-[(1-Dodecyl-2-diethylphosphonyl)-1-ethenyl]-5-hydroxy-2(5H)-furanone]",IC50,[1],80 nM
"CCCCCCCCCCCCC(=CC(=O)C(F)(F)F)C1=CC(=O)OC1O (centres unmarked) [Compound 23, (E),(Z)-4-[(1-Dodecyl-3-oxo-4,4,4-trifluoro)-1-butenyl]-5-hydroxy-2(5H)-furanone]",IC50,[1],40 nM
"CCCCCCCCCCCCC(CC(C)(C)O)C1=CC(=O)OC1O (centres unmarked) [Compound 10, 4-[1-(2-Hydroxy-2-methylpropyl)tridecyl]-5-hydroxy-2(5H)-furanone]",IC50,[1],> 1000 nM
"CCCCCCCCCCCCC(CC(=O)C(F)(F)F)C1=CC(=O)OC1O (centres unmarked) [Compound 9, 4-[1-(3,3,3-Trifluoro-2-oxo)propyl]tridecyl-5-hydroxy-2(5H)-furanone]",IC50,[1],420 nM
"CCCCCCCCCCCCC(C1=CC(=O)OC1O)C(C(=O)OC)C(=O)OC (centres unmarked) [Compound 11, 4-[-(1,1-Bis(carbomethoxy)methyl)tridecyl]-5-hydroxy-2(5H)-furanone]",IC50,[1],80 nM
"CCCCCCCCCCCCC(CC(C)=O)C1=CC(=O)OC1O (centres unmarked) [Compound 8, 4-[1-(2-oxopropyl)tridecyl]-5-hydroxy-2(5H)-furanone]",IC50,[1],90 nM
CC(=CCCC(C=O)=CC=CC1=CC(=O)OC1O)CCC1=C(C)CCCC1(C)C (centres unmarked) [Compound 3],biological activity,[2],anti-inflammatory inflammatory activity
"CCCCCCCCCCCCC(CC(=O)OCC)C1=CC(=O)OC1O (centres unmarked) [Compound 7, 4-[1-(Ethoxycarbonylmethyl)tridecyl]-5-hydroxy-2(5H)-furanone]",IC50,[1],260 nM
"CCCCCCCCCCCCC(CP(=O)(OCC)OCC)C1=CC(=O)OC1O (centres unmarked) [Compound 13, 4-[1-(diethylphosphonyl)methyl]tridecyl-5-hydroxy-2(5H)-furanone]",IC50,[1],100 nM
